How the values were obtained:
glucocorticoid receptor = target: T1, glucocorticoid receptor (Homo sapiens, UniProt P04150); conditions: cited from earlier work
T1 sequence (P04150 1-777): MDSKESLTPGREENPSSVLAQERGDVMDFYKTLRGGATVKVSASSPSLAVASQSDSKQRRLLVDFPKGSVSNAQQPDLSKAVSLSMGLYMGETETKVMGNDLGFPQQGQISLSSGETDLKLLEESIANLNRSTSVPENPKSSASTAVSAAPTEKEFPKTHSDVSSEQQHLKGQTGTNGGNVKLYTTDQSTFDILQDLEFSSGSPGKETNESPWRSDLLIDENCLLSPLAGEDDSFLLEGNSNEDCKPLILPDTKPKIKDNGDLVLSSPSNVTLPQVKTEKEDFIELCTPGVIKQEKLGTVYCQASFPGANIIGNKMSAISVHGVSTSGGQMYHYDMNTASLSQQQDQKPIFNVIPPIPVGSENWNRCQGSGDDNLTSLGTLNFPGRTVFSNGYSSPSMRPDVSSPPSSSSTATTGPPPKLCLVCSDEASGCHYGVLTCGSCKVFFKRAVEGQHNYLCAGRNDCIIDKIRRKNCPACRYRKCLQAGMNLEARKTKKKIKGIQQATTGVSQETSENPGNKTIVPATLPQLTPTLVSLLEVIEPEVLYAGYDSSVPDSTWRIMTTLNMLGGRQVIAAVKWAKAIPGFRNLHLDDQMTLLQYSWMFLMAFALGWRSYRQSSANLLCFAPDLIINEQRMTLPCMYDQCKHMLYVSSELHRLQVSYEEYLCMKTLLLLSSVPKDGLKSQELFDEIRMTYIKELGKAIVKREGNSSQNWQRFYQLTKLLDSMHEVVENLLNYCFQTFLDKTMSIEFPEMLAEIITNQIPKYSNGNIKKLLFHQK

estrogen receptor = target: T2, estrogen receptor (Homo sapiens, UniProt P03372); conditions: cited from earlier work
T2 sequence (P03372 1-595): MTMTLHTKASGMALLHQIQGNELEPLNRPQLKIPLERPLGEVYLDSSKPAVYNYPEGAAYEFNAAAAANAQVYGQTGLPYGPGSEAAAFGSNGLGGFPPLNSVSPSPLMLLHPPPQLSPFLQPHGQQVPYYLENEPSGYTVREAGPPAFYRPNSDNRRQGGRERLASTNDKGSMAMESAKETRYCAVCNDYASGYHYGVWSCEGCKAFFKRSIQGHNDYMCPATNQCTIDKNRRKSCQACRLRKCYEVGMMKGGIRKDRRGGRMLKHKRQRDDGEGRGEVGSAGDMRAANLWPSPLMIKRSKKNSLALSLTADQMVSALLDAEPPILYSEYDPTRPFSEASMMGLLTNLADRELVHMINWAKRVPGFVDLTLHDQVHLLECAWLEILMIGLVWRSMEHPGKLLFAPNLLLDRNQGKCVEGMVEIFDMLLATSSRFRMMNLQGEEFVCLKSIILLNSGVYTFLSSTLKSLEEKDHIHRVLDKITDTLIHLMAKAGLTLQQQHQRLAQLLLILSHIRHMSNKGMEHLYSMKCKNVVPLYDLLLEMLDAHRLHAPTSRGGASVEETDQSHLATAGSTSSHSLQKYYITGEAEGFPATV

[1] = test system: organotypic hippocampal slice cultures, CA1 region pyramidal cells; assay: Ethanol withdrawal toxicity (propidium iodide uptake) in organotypic hippocampal slice cultures; type: cell-based
Description: (FIG. 2A). […] Co-exposure to the selective glucocorticoid receptor antagonist ORG 34517 with ethanol and corticosterone prevented this withdrawal toxicity. Representative PI images above, (FIG. 2B). Results shown in graph form. *=P<0.05 vs control; **=P<0.05 vs EtOH WD+CORT.
Corticosterone's exacerbation of ethanol withdrawal toxicity is blocked by […] coadministration. […] (FIG. 2). […] Co-exposure to the selective glucocorticoid receptor antagonist ORG 34517 with ethanol and corticosterone prevented this withdrawal toxicity. Representative PI images above, graphed below. *=P<0.05 vs control; **=P<0.05 vs EtOH WD+CORT.

progesterone receptor = target: T3, progesterone receptor (Homo sapiens, UniProt P06401); conditions: cited from earlier work
T3 sequence (P06401 1-933): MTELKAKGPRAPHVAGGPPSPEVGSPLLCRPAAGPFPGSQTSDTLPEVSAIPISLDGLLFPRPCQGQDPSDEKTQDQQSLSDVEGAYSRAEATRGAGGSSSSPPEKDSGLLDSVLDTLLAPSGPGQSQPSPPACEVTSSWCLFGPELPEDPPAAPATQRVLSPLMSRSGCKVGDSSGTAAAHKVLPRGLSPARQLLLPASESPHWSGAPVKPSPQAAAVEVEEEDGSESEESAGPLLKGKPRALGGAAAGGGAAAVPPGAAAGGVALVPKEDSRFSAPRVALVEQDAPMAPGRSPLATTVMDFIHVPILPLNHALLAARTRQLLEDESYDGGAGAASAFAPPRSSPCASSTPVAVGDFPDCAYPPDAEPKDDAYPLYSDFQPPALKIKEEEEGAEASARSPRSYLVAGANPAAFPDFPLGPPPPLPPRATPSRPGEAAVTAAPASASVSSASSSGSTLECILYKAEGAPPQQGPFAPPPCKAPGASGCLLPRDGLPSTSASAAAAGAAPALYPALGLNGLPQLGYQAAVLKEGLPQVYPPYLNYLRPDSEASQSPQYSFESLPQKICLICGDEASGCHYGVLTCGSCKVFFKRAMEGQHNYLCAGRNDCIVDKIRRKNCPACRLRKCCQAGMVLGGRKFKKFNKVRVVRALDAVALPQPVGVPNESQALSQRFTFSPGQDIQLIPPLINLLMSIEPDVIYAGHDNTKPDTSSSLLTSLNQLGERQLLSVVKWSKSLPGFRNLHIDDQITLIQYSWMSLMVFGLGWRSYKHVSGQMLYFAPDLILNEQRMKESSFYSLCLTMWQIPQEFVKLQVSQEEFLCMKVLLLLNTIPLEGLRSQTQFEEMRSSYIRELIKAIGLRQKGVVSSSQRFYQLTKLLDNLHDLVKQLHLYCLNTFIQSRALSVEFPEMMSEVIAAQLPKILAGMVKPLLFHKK

[2] = all phase I and phase II clinical trials performed with the compound; cited from earlier work

## CC#C[C@]1(O)CC[C@H]2[C@@H]3CCC4=CC(=O)CCC4=C3[C@@H](c3ccc4c(c3)OCO4)C[C@@]21C [ORG 34517, (11β,17β)-11-(1,3-benzodioxol-5-yl)-17-hydroxy-17-(1-propynyl)estra-4,9-dien-3-one]
Adult male rats; 20 mg/kg s.c. once daily immediately prior to binge ethanol (i.g.) at 0800 hrs on 4 consecutive days, adult male rats, P<0.001 vs EtOH WD
  behavioral symptoms of the ethanol withdrawal syndrome: significantly reduced
Adult male rats; 20 mg/kg s.c. once daily prior to binge ethanol, 4 days, adult male rats
  reductions in whole body tremor and wet shakes: most evident
Adult male rats; rat, in vivo
  behavior of ethanol-naïve rats: did not alter behavior in any manner
Glucocorticoid receptor
  glucocorticoid receptor binding affinity: high
Estrogen receptor
  cross-binding / affinity for estrogen receptor: without significant cross-binding
[1]; co-exposure with ethanol (50 mM) and corticosterone (1 μM), 1 day of ethanol withdrawal, P<0.05 vs EtOH WD+CORT
  ethanol withdrawal toxicity (propidium iodide uptake, CA1 region): prevented
Progesterone receptor
  cross-binding / affinity for progesterone receptor: without significant cross-binding
[2]
  significant toxicities and side effects: none were identified

## C[C@]12C[C@H](O)[C@H]3[C@@H](CCC4=CC(=O)CC[C@@]43C)[C@@H]1CC[C@@H]2C(=O)CO [corticosterone]
[1]; corticosterone 1 μM with ethanol 50 mM, then 1 day of ethanol withdrawal in the presence of corticosterone
  toxicity (propidium iodide uptake) in CA1 region pyramidal cells: significant toxicity
[1]; corticosterone alone
  propidium iodide uptake, exposure alone: did not alter

## CCO [ethanol]
Adult male rats; male, rat, in vivo, 4 days
  peak blood ethanol levels: 180.27-103.5
